Like-named read-outs stand apart in the source and are kept apart here.
Legend:
[1] = system: mouse vas deferens; test: Inhibition of electrically-evoked contractions of the mouse isolated vas deferens; assay type: cell-based; conditions: for potency (EC50) greater than VSN-16R: vas deferens mouse assay, relative to VSN-16R
Protocol: Compounds were evaluated using a mouse vas deferens preparation [Ward S, Mastriani D, Casiano F and Arnold R (1990) J Pharmacol Exp Ther 255:1230-1239]. The mouse vas deferens isolated tissue preparation is used as an in vitro bioassay to assess the actions of compounds on neurotransmission. Electrically-evoked contractions are induced in the preparation and compounds which affect neurotransmission will inhibit these contractions in a concentration related manner. […] CB1 agonists inhibit electrically-evoked contractions.
Vasa deferentia were obtained from albino MF1 mice weighing 31-59 g. The tissues were mounted vertically in 4 ml organ baths. They were then subjected to electrical stimulation of progressively greater intensity, followed by an equilibration procedure in which they were exposed to alternate periods of stimulation (2 min) and rest (10 min) until contractions with consistent amplitudes were obtained. These contractions were monophasic and isometric, and were evoked by 0.5 s trains of pulses of 110% maximal voltage (train frequency 0.1 Hz; pulse frequency 5 Hz; pulse duration 0.5 ms).
All drug additions were made to the organ baths after the equilibration period and there was no washout between these additions. Potential antagonist or its vehicle were added to the preparation. This was followed 28 min later by a 2-min period of electrical stimulation, at the end of which the lowest of a series of concentrations of the twitch inhibitors was applied. After a period of rest, the tissues were electrically stimulated for 2 min and then subjected to a further addition of twitch inhibitor. This cycle of drug addition, rest and 2 min stimulation was repeated so as to construct cumulative concentration—response curves. Only one concentration—response curve was constructed per tissue.
Values for EC50, maximal effect (Emax) and the s.e.m. or 95% confidence limits of these values have been calculated by nonlinear regression analysis using the equation for a sigmoid concentration—response curve (GraphPad Prism).

[2] = system: spasticity in CREAE mice; conditions: cited from earlier work
[3] = system: mouse vas deferens (CB1 knock-out); test: VSN-16R dose response curve in mouse vas deferens, CB1 knock-out; assay type: cell-based
[4] = system: mouse vas deferens (CB2 knock-out); test: VSN-16R dose response curve in mouse vas deferens, CB2 knock-out; assay type: cell-based
[5] = Mus musculus, Table 2, read-out: EC50
[6] = Mus musculus, Table 2, read-out: Emax (%)

Compound | EC50 [1, 5] [nM] | Emax [1, 6] [%] | other results
COC(=O)CNC(=O)c1cccc(/C=C\CCCC(=O)N(C)C)c1 [[23], (Z)-methyl 2-(3-(6-(dimethylamino)-6-oxohex-1-en-1-yl)benzamido)acetate] | 0.0225 | 59.2 | 
COC(=O)[C@@H](C)NC(=O)c1cccc(C#CCCCC(=O)N2CCCC2)c1 [[20], (R)-methyl 2-(3-(6-oxo-6-(pyrrolidin-1-yl)hex-1-yn-1-yl)benzamido)propanoate] | 0.466 | 44.7 | 
CN(C)C(=O)CCC/C=C\c1cccc(C(=O)N[C@H](Cc2ccccc2)C(=O)O)c1 [[16], (R,Z)-2-(3-(6-(dimethylamino)-6-oxohex-1-en-1-yl)benzamido)-3-phenylpropanoic acid] | 0.00604 | 73.9 | 
CC(CO)NC(=O)c1cccc(/C=C\CCCC(=O)N(C)C)c1 (stereo not shown) [VSN16] |  |  | effect on spasticity [2]: marked effect on spasticity
COC(=O)[C@@H](C)NC(=O)c1cccc(/C=C\CCCC(=O)N2CCCC2)c1 [[21], (R,Z)-methyl 2-(3-(6-oxo-6-(pyrrolidin-1-yl)hex-1-en-1-yl)benzamido)propanoate] | 0.162 | 58.3 | 
COC(=O)[C@@H](Cc1ccccc1)NC(=O)c1cccc(C#CCCCC(=O)N(C)C)c1 [[30], (R)-methyl 2-(3-(6-(dimethylamino)-6-oxohex-1-yn-1-yl)benzamido)-3-phenylpropanoate] | 0.0614 | 46.3 | 
CN(C)C(=O)CCC/C=C\c1cccc(C(=O)N[C@@H](Cc2ccccc2)C(=O)O)c1 [[17], (S,Z)-2-(3-(6-(dimethylamino)-6-oxohex-1-en-1-yl)benzamido)-3-phenylpropanoic acid] | 0.14 | 56.3 | 
COC(=O)[C@H](CO)NC(=O)c1cccc(/C=C\CCCC(=O)N(C)C)c1 [[25], (S,Z)-methyl 2-(3-(6-(dimethylamino)-6-oxohex-1-en-1-yl)benzamido)-3-hydroxypropanoate] | 0.359 | 52.9 | 
COC(=O)[C@@H](Cc1ccccc1)NC(=O)c1cccc(/C=C\CCCC(=O)N(C)C)c1 [[31], (R,Z)-methyl 2-(3-(6-(dimethylamino)-6-oxohex-1-en-1-yl)benzamido)-3-phenylpropanoate] | 0.0122 | 47 | 
COC(=O)[C@H](Cc1ccccc1)NC(=O)c1cccc(/C=C\CCCC(=O)N(C)C)c1 [[27], (S,Z)-methyl 2-(3-(6-(dimethylamino)-6-oxohex-1-en-1-yl)benzamido)-3-phenylpropanoate] | 0.0908 | 55.3 | 
Cc1c(C(=O)c2cccc3ccccc23)c2cccc3c2n1[C@H](CN1CCOCC1)CO3 [WIN55212-2, reference compound] |  |  | pEC50 ± SEM ([1]; Table 1): 8.41 ± 0.237; Emax (%) ± 95% confidence limits ([1]; Table 1, inhibition of electrically-evoked twitch response): 62 (52-72) %; EC50 ([1]; Table 1, read-out: EC50): 3.86 nM
COC(=O)[C@@H](CO)NC(=O)c1cccc(/C=C\CCCC(=O)N(C)C)c1 [[29], (R,Z)-methyl 2-(3-(6-(dimethylamino)-6-oxohex-1-en-1-yl)benzamido)-3-hydroxypropanoate] | 0.0456 | 62 | 
COC(=O)[C@H](CO)NC(=O)c1cccc(C#CCCCC(=O)N(C)C)c1 [[24], (S)-methyl 2-(3-(6-(dimethylamino)-6-oxohex-1-yn-1-yl)benzamido)-3-hydroxypropanoate] | 0.412 | 51.5 | 
COC(=O)[C@H](C)NC(=O)c1cccc(C#CCCCC(=O)N(C)C)c1 [[32], (S)-methyl 2-(3-(6-(dimethylamino)-6-oxohex-1-yn-1-yl)benzamido)propanoate] | 0.0131 | 54.6 | 
C[C@H](CO)NC(=O)c1cccc(/C=C\CCCC(=O)N(C)C)c1 [VSN16R, reference compound] |  |  | Emax ([1]; Mus musculus): 40.7%; EC50 ([1]; Mus musculus, Table 1): 10.4 nM; EC50 ([1]; Mus musculus, Table 2): 0.722 nM; Emax ([1]; Mus musculus, read-out: Emax (%) ± 95% confidence limits): 56%; EC50 ([1]; Mus musculus, read-out: pEC50 ± SEM, Table 1 (converted)): 10.5 nM; EC50 ([1]; Mus musculus, wild type, FIG. 3): 10.4 nM; EC50 [3]: 12.7 nM; EC50 [4]: 17.6 nM
CN(C)C(=O)CCC/C=C\c1cccc(C(=O)N[C@H](CO)C(=O)O)c1 [[14], (R,Z)-2-(3-(6-(dimethylamino)-6-oxohex-1-en-1-yl)benzamido)-3-hydroxypropanoic acid] | 0.124 | 58.5 | 
CN(C)C(=O)CCC/C=C\c1cccc(C(=O)N[C@@H](CO)C(=O)O)c1 [[18], (S,Z)-2-(3-(6-(dimethylamino)-6-oxohex-1-en-1-yl)benzamido)-3-hydroxypropanoic acid] | 0.382 | 62.7 | 
COC(=O)CNC(=O)c1cccc(C#CCCCC(=O)N(C)C)c1 [[22], methyl 2-(3-(6-(dimethylamino)-6-oxohex-1-yn-1-yl)benzamido)acetate] | 0.112 | 52.9 | 
CN(C)C(=O)CCC/C=C\c1cccc(C(=O)NCC(=O)O)c1 [[15], (Z)-2-(3-(6-(dimethylamino)-6-oxohex-1-en-1-yl)benzamido)acetic acid] | 0.102 | 53.7 | 
C[C@@H](NC(=O)c1cccc(/C=C\CCCC(=O)N(C)C)c1)C(=O)O [[1], (Z)-(3-(6-(dimethylamino)-6-oxohex-1-en-1-yl)benzoyl)-D-alanine] | 0.00655 | 64 | EC50 ([1]; Mus musculus, Table 1, read-out: EC50): 1.42 nM; EC50 ([1]; Mus musculus, Table 1, read-out: pEC50 ± SEM (converted)): 1.41 nM; Emax ([1]; Mus musculus, Table 1, inhibition of electrically-evoked twitch response, read-out: Emax (%) ± 95% confidence limits): 46%; potency (EC50) greater than VSN-16R [1]: 10 fold; potency (EC50) greater than VSN-16R ([1]; listed as VSN44): ten-fold greater; potency (EC50) greater than VSN-16R ([1]; listed as VSN-44): ≥ 10 fold

— patent publication US9908843B2, “Benzamide derivatives useful in the treatment of muscular disorders and pain and for controlling spasticity and tremors” (Canbex Therapeutics Limited, priority 2013, dated 2018)
